Measured values taken from ChEMBL document CHEMBL1201862, “PubChem BioAssay data set” (2004).
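Five concentrations, 48 hours, 96-well plates. The concentration for 50% growth inhibition is given as GI50.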 The source made the active and inactive calls. Cut-off read from the data, not from the text of the source: active = GI50 up to about 1.1 µM and inactive = higher.

Experiments:
Experiment in all cases: inhibition of tumour cell growth, NCI panel, 48 h
DMS-114 = test system: DMS-114
HOP-18 = test system: HOP-18
KM-20L2 = test system: KM-20L2
LXFL 529 = test system: LXFL 529
M19-MEL = test system: M19-MEL
XF498 = test system: XF498
DLD-1 = test system: DLD-1
RXF 631 = test system: RXF 631
DMS-273 = test system: DMS-273

NC(=O)C(=O)Cc1nc2ccccc2s1
GI50 (DMS-114): > 100 µM (inactive)
GI50 (HOP-18): > 100 µM (inactive)
GI50 (KM-20L2): > 100 µM (inactive)
GI50 (LXFL 529): > 100 µM (inactive)
GI50 (M19-MEL): > 100 µM (inactive)
GI50 (XF498): > 100 µM (inactive)

O=C(CC1Sc2ccccc2NC1=O)Nc1ccc([N+](=O)[O-])cc1[N+](=O)[O-] (stereo unspecified)
GI50 (DLD-1): 15.3 µM (inactive)
GI50 (DMS-114): 14.2 µM (inactive)
GI50 (HOP-18): 3.39 µM (inactive)
GI50 (KM-20L2): 26.7 µM (inactive)
GI50 (LXFL 529): 15.3 µM (inactive)
GI50 (M19-MEL): 16.1 µM (inactive)
GI50 (RXF 631): 17.1 µM (inactive)

C[S+]=c1sc2ccccc2s1
GI50 (DLD-1): > 100 µM (inactive)
GI50 (DMS-114): > 100 µM (inactive)
GI50 (DMS-273): > 100 µM (inactive)
GI50 (HOP-18): > 100 µM (inactive)
GI50 (KM-20L2): > 100 µM (inactive)
GI50 (LXFL 529): > 100 µM (inactive)
GI50 (M19-MEL): > 100 µM (inactive)
GI50 (RXF 631): > 100 µM (inactive)

CC1=N/C(=C\c2cccc3ccccc23)C(=O)O1
GI50 (DLD-1): > 100 µM (inactive)
GI50 (DMS-114): > 100 µM (inactive)
GI50 (HOP-18): 10.6 µM (inactive)
GI50 (KM-20L2): > 100 µM (inactive)
GI50 (LXFL 529): > 100 µM (inactive)
GI50 (M19-MEL): > 100 µM (inactive)
GI50 (RXF 631): > 100 µM (inactive)

CC1=C(C(=O)Nc2ccccc2C)C(c2ccc(C3C(C(=O)Nc4ccccc4C)=C(C)NC(C)=C3C(=O)Nc3ccccc3C)cc2)C(C(=O)Nc2ccccc2C)=C(C)N1
GI50 (DLD-1): 2.27 µM (inactive)
GI50 (DMS-114): 3.75 µM (inactive)
GI50 (DMS-273): 3.16 µM (inactive)
GI50 (KM-20L2): 3.74 µM (inactive)
GI50 (LXFL 529): 2.84 µM (inactive)
GI50 (M19-MEL): 3.83 µM (inactive)
GI50 (RXF 631): 12.8 µM (inactive)
GI50 (XF498): 15.8 µM (inactive)

COC(=O)C1(C)NCCc2c1[nH]c1ccccc21 (stereo unspecified)
GI50 (DLD-1): > 100 µM (inactive)
GI50 (DMS-114): > 100 µM (inactive)
GI50 (KM-20L2): > 100 µM (inactive)
GI50 (LXFL 529): > 100 µM (inactive)
GI50 (M19-MEL): > 100 µM (inactive)

CC1CC(=O)Nc2ccccc2N1C(=O)CN1CCC(CCCCN(C)C)CC1 (stereo unspecified)
GI50 (DLD-1): > 100 µM (inactive)
GI50 (DMS-114): > 100 µM (inactive)
GI50 (DMS-273): > 100 µM (inactive)
GI50 (HOP-18): > 100 µM (inactive)
GI50 (KM-20L2): > 100 µM (inactive)
GI50 (LXFL 529): > 100 µM (inactive)
GI50 (M19-MEL): > 100 µM (inactive)
GI50 (RXF 631): > 100 µM (inactive)

CN(C)C(=N)c1ccccc1
GI50 (DMS-114): > 100 µM (inactive)
GI50 (DMS-273): > 100 µM (inactive)
GI50 (KM-20L2): > 100 µM (inactive)
GI50 (LXFL 529): > 100 µM (inactive)
GI50 (M19-MEL): > 100 µM (inactive)
GI50 (XF498): > 100 µM (inactive)

C#CC1(O)CCC2C3CCc4cc(Oc5nc(F)nc(-c6c7ccccc7c7n6CCS7)n5)ccc4C3CC[C@@]21C (stereo partly specified)
GI50 (DLD-1): 39.8 µM (inactive)
GI50 (DMS-114): 11.2 µM (inactive)
GI50 (DMS-273): 27.2 µM (inactive)
GI50 (KM-20L2): 29.2 µM (inactive)
GI50 (LXFL 529): 25.1 µM (inactive)
GI50 (M19-MEL): 33.9 µM (inactive)
GI50 (XF498): 37.7 µM (inactive)

Cc1nc2ccccn2c1/N=N/c1ccc(C(=O)NN)cc1
GI50 (DLD-1): 52.4 µM (inactive)
GI50 (DMS-114): 17.4 µM (inactive)
GI50 (HOP-18): 70.6 µM (inactive)
GI50 (KM-20L2): 92.9 µM (inactive)
GI50 (LXFL 529): 38.5 µM (inactive)
GI50 (M19-MEL): > 100 µM (inactive)
GI50 (RXF 631): 31.7 µM (inactive)
GI50 (XF498): 75 µM (inactive)

C=C1CCC(OC(C)=O)C2(C)C(OC(C)=O)CC3OC3(C)C2C(OC(C)=O)C2C(C)C(=O)OC2C1Cl (stereo unspecified)
GI50 (DLD-1): > 100 µM (inactive)
GI50 (DMS-114): > 100 µM (inactive)
GI50 (DMS-273): > 100 µM (inactive)
GI50 (HOP-18): > 100 µM (inactive)
GI50 (KM-20L2): > 100 µM (inactive)
GI50 (LXFL 529): > 100 µM (inactive)
GI50 (M19-MEL): > 100 µM (inactive)
GI50 (RXF 631): > 100 µM (inactive)
GI50 (XF498): > 100 µM (inactive)

COc1ccc2nc3cc(Cl)ccc3c(NC(C)CCCN(CCCl)CCCl)c2c1 (stereo unspecified)
GI50 (DLD-1): 0.524 µM (active)
GI50 (DMS-114): 0.733 µM (active)
GI50 (DMS-273): 0.109 µM (active)
GI50 (KM-20L2): 0.356 µM (active)
GI50 (LXFL 529): 0.439 µM (active)
GI50 (M19-MEL): 0.598 µM (active)
GI50 (XF498): 0.333 µM (active)

COc1ccc(C(=O)C(C(=O)CC(=O)Nc2cccc(C(F)(F)F)c2)c2ccc(OC)cc2)cc1 (stereo unspecified)
GI50 (DLD-1): > 100 µM (inactive)
GI50 (DMS-114): > 100 µM (inactive)
GI50 (DMS-273): > 100 µM (inactive)
GI50 (KM-20L2): > 100 µM (inactive)
GI50 (LXFL 529): > 100 µM (inactive)
GI50 (M19-MEL): > 100 µM (inactive)
GI50 (RXF 631): > 100 µM (inactive)
GI50 (XF498): > 100 µM (inactive)

N#CC(C#N)=c1ccc(=C2N3CCCC3CN2C23CC4CC(CC(C4)C2)C3)cc1 (stereo unspecified)
GI50 (DLD-1): > 100 µM (inactive)
GI50 (DMS-114): > 100 µM (inactive)
GI50 (DMS-273): > 100 µM (inactive)
GI50 (HOP-18): > 100 µM (inactive)
GI50 (KM-20L2): > 100 µM (inactive)
GI50 (LXFL 529): > 100 µM (inactive)
GI50 (M19-MEL): > 100 µM (inactive)

C[C@]12CCC(=O)C(OC(=O)c3ccc([N+](=O)[O-])cc3)=C1CCC2=O
GI50 (DLD-1): > 100 µM (inactive)
GI50 (DMS-114): > 100 µM (inactive)
GI50 (DMS-273): > 100 µM (inactive)
GI50 (HOP-18): > 100 µM (inactive)
GI50 (KM-20L2): > 100 µM (inactive)
GI50 (LXFL 529): > 100 µM (inactive)
GI50 (M19-MEL): > 100 µM (inactive)

[C-]#[N+][C@@H]1C2[C@H](CC[C@@]1(C)O)C(=C)CC[C@@H]2[C@@]1(C)CC[C@H](Cl)C(C)(C)O1 (stereo partly specified)
GI50 (DLD-1): 2.88 µM (inactive)
GI50 (DMS-114): 1.5 µM (inactive)
GI50 (HOP-18): 2.71 µM (inactive)
GI50 (KM-20L2): 6.68 µM (inactive)
GI50 (LXFL 529): 3.57 µM (inactive)
GI50 (M19-MEL): 4.12 µM (inactive)
GI50 (RXF 631): 6.62 µM (inactive)
GI50 (XF498): 4.71 µM (inactive)
